In patent publication US3985758A, “1,4-Dihydropyridine derivatives” (Yamanouchi Pharmaceutical Co., Ltd., priority 1973, dated 1976):
Converted amounts (≈) assume the structure as drawn. Structures can show the parent of a compound that is named as a salt. Where two headings read alike, the source gives them in different places.

Assays:
in vivo [1] = details: mouse, in vivo, iv
Description: (§1) LD50 was determined by using mice.
(§2) 2. Acute toxicity in mice
(§3) Male ICR weighing 25 to 32 g were used. The test compounds were injected into tail vein and LD 50 values were determined.

mice = test: in vivo; details: i.v.; mice
Description: as §1, §2, §3

vertebral artery = test: Direct vasodilating effect on vertebral artery, constant volume perfusion; format: in vivo, mongrel dog; details: intra-arterial
Source text: (§4) Heparin (1000 μ/Kg, i.v.) was used as an anticoagulant. The methods for perfusion of each artery were as following: 1) For the vertebral artery, the arterial blood led from the left common carotid artery was collected by the tygon tubing and perfused by the Sigma-motor pump (Mippleport N.Y. T-8) into the right vertebral artery. 2) For the femoral artery, the arterial blood led from the proximal femoral artery was perfused by the Sigma-motor pump into the distal femoral artery. […] All drugs were given into a rubber tube connected close to the each arterial cannula by a microinjector (Jintan Terumo, NSN-100).

femoral artery = test: Direct vasodilating effect on femoral artery, constant volume perfusion; format: in vivo, mongrel dog; details: intra-arterial; ±SE; maximum response to papaverine 3000 μg i.a. = 100%
Source text: For the analysis of the selective effect on vasculature by the drugs, direct effect on cerebral (vertebral artery) and peripheral (femoral artery) vascular bed were studied by the method of the constant volume perfusion.
as §4

guinea-pig ileum = test: Spasmolytic activity in isolated guinea-pig ileum (Magnus apparatus); details: Cavia porcellus, ±S.E.
Description: Methods: Isolated guinea-pig ileum was suspended in Tyrodes solution by use of Magnus apparatus and the movements of the muscle were recorded in a kymograph by an isotonic lever.

[2] = Solubility in water at 25° C; format: physicochemical
[3] = tested on: vertebral and femoral blood flow; test: Vertebral and femoral blood flow in anesthetized dogs; format: in vivo, mongrel dog; details: 0.01 mg/kg i.v. (0.01 or 0.03 mg/kg); for Blood pressure change (Δ mmHg): femoral artery; for Separation ratio (percent increase of vertebral blood flow / that of femoral blood flow): significance vs SKF 24260
Description: Vertebral and femoral blood flow in anesthetized dogs.
Mongrel dogs of both sexes weighing from 12 to 27 kg were anesthetized with sodium pentobarbitol (30 mg/kg i.v.). In all experiments, trachea was cannulated and the animals were artificially ventilated with room air. Blood pressure in cannulated femoral artery was measured by means of a pressure transducer (Nihon Kohden, MPU 0.5). Vertebral and femoral blood flow were measured by a noncannulating electromagnetic flowmeter (Nihon Kohden, MF-25) positioned around the vessels. Recordings were made on an ink-writing polygraph (Nihon Kohden, RM-150 or RM-85). The test compounds were injected at a dose of 0.01 mg/kg into femoral vein.

in vivo [4] = details: dog, iv
[5] = U.S. Pat. No. 3,511,837; cited from earlier work
[6] = cited from earlier work

COC(=O)C1=C(C)NC(C)=C(C(=O)OCCN(C)Cc2ccccc2)C1c1cccc([N+](=O)[O-])c1 (stereo not drawn) [Example 2, 2,6-dimethyl-4-(3'-nitrophenyl)-1,4-dihydropyridine-3,5-dicarboxylic acid 3-β-(N-benzyl-N-methylamino)ethyl ester 5-methyl ester hydrochloride]
LD50 (in vivo [1]): 20.7 mg/kg | LD50 (mice): 20.7 mg/kg | Selectivity ratio (ED50 in femoral artery/ED50 in vertebral artery) (vertebral artery; anesthetized dogs): 1.30 | Vasodilation ED50, vertebral artery (vertebral artery; ±SE, maximum response to papaverine 3000 μg i.a. = 100%): 0.66 ± 0.20 µg | Vasodilation ED50, femoral artery (femoral artery): 0.86 ± 0.11 µg | IC50 (guinea-pig ileum; read-out: Spasmolytic activity, 50% inhibition of contractile response, Acetylchloline 10^-7 g/ml): 5.2 ng/mL | IC50 (guinea-pig ileum; read-out: Spasmolytic activity, 50% inhibition of contractile response, BaCl2 2×10^-4 g/ml): 1.9 ng/mL | IC50 (guinea-pig ileum; read-out: Spasmolytic activity, 50% inhibition of contractile response, Histamine 10^-7 g/ml): 1.8 ng/mL | pH (of solubility determination) ([2]; compounds of the present invention, 25° C): 3.92 | solubility ([2]; compounds of the present invention, 25° C, at the given pH, read-out: Solubility): 4900 µg/mL | Femoral blood flow (FBF %) [3]: 51 ± 5.8% | Vertebral blood flow (VBF Δ %) [3]: 200 ± 27.3 Δ % | Blood pressure change (Δ mmHg) [3]: -29 ± 3.6 Δ mmHg | Separation ratio (percent increase of vertebral blood flow / that of femoral blood flow) [3]: 4.19 ± 0.69 | LD50 (in vivo [4]): 6.1 mg/kg | Heart rate (Δbeats/min.±SE) (anesthetized dogs; 0.0003 mg/Kg i.v.): 4±1.3 Δbeats/min. | Mean blood pressure (ΔmmHg±SE) (anesthetized dogs; 0.0003 mg/Kg i.v.): -1±0.6 ΔmmHg | Vertebral blood flow (Δ%±SE) (anesthetized dogs; 0.0003 mg/Kg i.v.): 27±4.4 Δ% | Heart rate (Δbeats/min.±SE) (anesthetized dogs; 0.001 mg/Kg i.v.): 12±2.2 Δbeats/min. | Mean blood pressure (ΔmmHg±SE) (anesthetized dogs; 0.001 mg/Kg i.v.): -7±1.5 ΔmmHg | Vertebral blood flow (Δ%±SE) (anesthetized dogs; 0.001 mg/Kg i.v.): 61±9.5 Δ% | Heart rate (Δbeats/min.±SE) (anesthetized dogs; 0.003 mg/Kg i.v.): 18±2.0 Δbeats/min. | Mean blood pressure (ΔmmHg±SE) (anesthetized dogs; 0.003 mg/Kg i.v.): -14±2.2 ΔmmHg | Vertebral blood flow (Δ%±SE) (anesthetized dogs; 0.003 mg/Kg i.v.): 132±13.8 Δ% | Heart rate (Δbeats/min.±SE) (anesthetized dogs; 0.01 mg/Kg i.v.): 25±5.3 Δbeats/min. | Mean blood pressure (ΔmmHg±SE) (anesthetized dogs; 0.01 mg/Kg i.v.): -29±3.6 ΔmmHg | Vertebral blood flow (Δ%±SE) (anesthetized dogs; 0.01 mg/Kg i.v.): 200±27.3 Δ%

CCOC(=O)C1=C(C)NC(C)=C(C(=O)OCC)C1c1ccccc1C(F)(F)F [SKF 24260, 3,5-dicarbethoxy-1,4-dihydro-2,6-dimethyl-4-(2-trifluoromethylphenyl) pyridine, reference compound]
LD50 (in vivo [1]): 0.8 mg/kg | pH (of solubility determination) ([2]; known compounds, 25° C): 5.40 | solubility ([2]; known compounds, 25° C, at the given pH, read-out: Solubility): 10 µg/mL (≈ 25.2 µM) | solubility ([2]; known compounds, pH 4.00, 25° C, read-out: Solubility at pH 4.00): 10 µg/mL (≈ 25.2 µM) | Femoral blood flow (FBF %) [3]: 165 ± 40% | Vertebral blood flow (VBF Δ %) [3]: 144 ± 17.7 Δ % | Blood pressure change (Δ mmHg) [3]: -44 ± 4.8 Δ mmHg | Separation ratio (percent increase of vertebral blood flow / that of femoral blood flow) [3]: 0.93 ± 0.11 | Hypotensive activity [5]: shows hypotensive activity | Water-solubility (in words) [6]: very poorly water-soluble
